Where two headings read alike, the source gives them in different places.
Key:
[1] = test system: HCV genotype Ib replicon in Huh-luc/neo-ET cells; type: cell-based, HCV genotype 1b; conditions: for interaction: SPC3649 with 2-methyl cytidine
Experimental: The anti-viral efficacy and cellular toxicity of non-transfected antimiR oligonucleotide in combination with approved and experimental anti-HCV therapeutics (e.g. BMS-790052) (or other NS5A inhibitors), was determined in the reporter cell line Huh-luc/neo-ET. This cell line harbors the persistently replicating I389luc-ubi-neo/NS3-37ET replicon containing the firefly luciferase gene-ubiquitin-neomycin phosphotransferase fusion protein and EMCV IRES driven NS3-5B HCV coding sequences containing the ET tissue culture adaptive mutations (E1202G, T1208I, and K1846T). Eight dilutions of non-transfected antimiR oligonucleotide (bracketing the calculated EC50) were evaluated in triplicate on duplicate sets of three plates with five dilutions of each of the control compounds (bracketing the calculated EC50). One set of plates was used for the determination of cellular toxicity and the other set of plates was used for the determination of anti-viral efficacy. The efficacy and toxicity results was quantified with firefly luciferase activity and XTT dye reduction, respectively, and the results of the assay is imported into the Prichard and Shipman MacSynergy II software program. The MacSynergy II analysis includes calculation of the dose response of the two (or more) compounds when used alone followed by calculation of the expected additive level of antiviral inhibition or toxicity when the compounds are used together based on the individual dose response curves. The expected level of activity at each of the concentration data points was compared to the experimentally determined antiviral activity in the assay. The expected activity was subtracted from the realized activity, yielding a negative, zero or positive value. […]
The combination antiviral assays were performed using the reporter cell line Huh-luc/neo-ET, which contains a bicistronic HCV genotype Ib replicon. Combination data were analyzed using MacSynergy II software at the 95%, confidence interval. […]

Huh-luc/neo-ET cells = test system: Huh-luc/neo-ET cells
Experimental: Eight dilutions of non-transfected antimiR oligonucleotide (bracketing the calculated EC50) were evaluated in triplicate on duplicate sets of three plates with five dilutions of each of the control compounds (bracketing the calculated EC50). One set of plates was used for the determination of cellular toxicity and the other set of plates was used for the determination of anti-viral efficacy. The efficacy and toxicity results was quantified with firefly luciferase activity and XTT dye reduction, respectively, and the results of the assay is imported into the Prichard and Shipman MacSynergy II software program. […] The expected level of activity at each of the concentration data points was compared to the experimentally determined antiviral activity in the assay. The expected activity was subtracted from the realized activity, yielding a negative, zero or positive value. […]
The cells were treated with trypsin and enumerated by staining with trypan blue and seeded into 96-well tissue culture plates at a cell culture density 5.0×10^3 cells per well in a volume of 85 f.IL per well and incubated at […] in an environment of 5% CO2 for 24 hours. […] Following incubation, the plates were assessed for anti-HCV activity by measurement of luciferase reporter activity and cellular cytotoxicity by XTT staining.

[2] = test system: HCV genotype 1b replicon NS3 A156T; type: cell-based; conditions: EC50 mutant / EC50 wild-type; mean of two experiments (individual values); 72 hours
Experimental: (§1) The objective of this study was to evaluate the in vitro antiviral activity of miravirsen (SPC3649) against wild-type HCV genotype Ib replicon and NS3, NS5A and NS5B drug-resistant HCV genotype 1 b replicons in transient transfection assays utilizing Huh 7 cells. Method: The in vitro antiviral of miravirsen was evaluated against wild-type HCV genotype 1 b replicon and HCV genotype 1 b replicons constructed to contain key amino acid substitutions in NS3 protease (A156T, R155K), NS5B polymerase (S282T, M423I) and NS5A protein (Y93H) in transient transfection assays utilizing Huh 7 cells. […] Huh 7 cells were transfected with either the wild-type or the mutant RNA constructs by electroporation. Luciferase activity was measured 72 hours after compound treatment and EC50 values determined from dose-response curves. Fold resistance was expressed as the ratio of the EC50 for mutant HCV replicon to the EC50 for wild-type HCV replicon.
(§2) The in vitro antiviral of miravirsen was evaluated against wild-type HCV genotype Ib replicon and HCV replicons constructed to contain key amino acid substitutions in NS3 protease (A156T, R155K), NS5B polymerase (S282T, M423I) and NS5A protein (Y93H) in transient transfection assays. […] Huh 7 cells were transfected with either the wild type or the mutant RNA constructs by electroporation. Luciferase activity was measured 72 hours after compound treatment and EC50 values determined from dose-response curves. Fold resistance was expressed as the ratio of the EC50 for mutant HCV replicon to the EC50 for wild-type HCV replicon. Results are expressed as the mean of two individual experiments. In an initial set of experiments, the standard protocol was modified by adding compounds 24 hours after electroporation. […] In a third experiment cells were pretreated with miravirsen for 24 hours before electroporation with wild-type RNA constructs to determine if preincubation could result in increased miravirsen antiviral activity.

[3] = test system: HCV genotype 1b replicon NS3 R155K; type: cell-based; conditions: EC50 mutant / EC50 wild-type; mean of two experiments (individual values); 72 hours
Experimental: as §1, §2

[4] = test system: HCV genotype 1b replicon NS5A Y93H; type: cell-based; conditions: EC50 mutant / EC50 wild-type; mean of two experiments (individual values); 72 hours
Experimental: as §1, §2

[5] = test system: HCV genotype 1b replicon NS5B M423I; type: cell-based; conditions: EC50 mutant / EC50 wild-type; mean of two experiments (individual values); 72 hours
Experimental: as §1, §2

[6] = test system: HCV genotype 1b replicon NS5B S282T; type: cell-based; conditions: EC50 mutant / EC50 wild-type; mean of two experiments (individual values); 72 hours
Experimental: as §1, §2

“5′-Ts·^oc^·sAs·^otsa^·s^mCs·^oTs·^oa^·stsAs·^otsGs·^oa^·s^mCs·^oA·^o-3′ [SPC4729]” was tested, and the “overall interaction (antiviral)” value ([1]; ribavirin plus the named compound) was “antagonistic”, the “Cytotoxicity, Synergy vol” value (Huh-luc/neo-ET cells) was 0.00/−44.3 μM^2% and the “Cytotoxicity, Antag Vol” value (Huh-luc/neo-ET cells; Ribavirin plus the named compound, 95% confidence level) was 0.00/−44.3 μM^2%.

“5′-^mCs^ocsAs^otstsGs^oTs^ocsas^mCs^oas^mCs^ots^mCs^omCo-3′ (CCATTGTCACACTCC; all phosphorothioate, sugars by position and methylation of C not given here; further chemistry not fully specified) [miravirsen]” was tested, and the “Fold Resistance NS3 A156T” value [2] was 1.0 (1.4, 0.5) fold, the “Fold Resistance NS3 R155K” value [3] was 1.2 (1.9, 0.4) fold and the “Fold Resistance NS5A Y93H” value [4] was 0.9 (0.8, 0.9) fold. The “Fold Resistance NS5B M423I” value [5] was 1.7 (2.3, 1.0) fold and the “Fold Resistance NS5B S282T” value [6] was 1.9 (2.6, 1.1) fold.

With C[C@@]1(O)[C@H](O)[C@@H](CO)O[C@H]1n1ccc(N)nc1=O [2′-C-Methylcytidine] the interaction ([1]; third replicate) was “slightly antagonistic interaction” and the interaction ([1]; two of the assay replicates) was “positive interactions”.

In the case of CCC[C@H](NC(=O)[C@@H]1[C@H]2CCC[C@H]2CN1C(=O)[C@@H](NC(=O)[C@@H](NC(=O)c1cnccn1)C1CCCCC1)C(C)(C)C)C(=O)C(=O)NC1CC1 [Telaprevir, (1S,3aR,6aS)-2-[(2S)-2-[[(2S)-2-Cyclohexyl-2-(pyrazine-2-carbonylamino)acetyl]amino]-3,3-dimethylbutanoyl]-N-[(3S)-1-(cyclopropylamino)-1,2-dioxohexan-3-yl]-3,3a,4,5,6,6a-hexahydro-1H-cyclopenta[c]pyrrole-1-carboxamide], the “Fold Resistance NS3 R155K” value [3] is reported as 4.6 (5.0, 4.2) fold.

In the case of CC(C)(C)C#Cc1cc(N(C(=O)[C@H]2CC[C@H](C)CC2)[C@H]2CC[C@H](O)CC2)c(C(=O)O)s1 [VX-222], the “Fold Resistance NS5B M423I” value [5] is reported as 4.4 (3.6, 5.2) fold.
